Columns and labels:
[1] = target: T1, G12C-mutant human KRAS (amino acid residues 1-188) (Homo sapiens, UniProt P01116, G12C); test: KRAS Binding Disruption Assay (AlphaScreen; biotinylated KRpep-2d analogue or RAF1-RBD), G12C; settings: geometric mean, read-out: KRAS GMean IC50 (uM) MUTATION: G12C
T1 construct: G12D or G12C-mutant human KRAS (amino acid residues 1-188) with FLAG tag; made in house; host or cells: E. coli
In short: (§1)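 Compounds are titrated against 5-20 nM mutant KRAS and 5-20 nM of either a biotinylated KRpep-2d analogue or RAF1-RBD, incubated 1 h at 25° C. Disruption is detected as reduced Alpha signal after 1 h with donor and acceptor beads at 10 μg/mL.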

[2] = target: T2, G12D-mutant human KRAS (amino acid residues 1-188) (Homo sapiens, UniProt P01116, G12D); test: KRAS Binding Disruption Assay (AlphaScreen; biotinylated KRpep-2d analogue or RAF1-RBD), G12D; settings: KRAS G12D; geometric mean; read-out: KRAS GMean IC50 (uM) MUTATION: G12D
T2 construct: G12D or G12C-mutant human KRAS (amino acid residues 1-188) with FLAG tag; made in house; host or cells: E. coli
T2 sequence (P01116 1-188 isoform P01116-2 G12D): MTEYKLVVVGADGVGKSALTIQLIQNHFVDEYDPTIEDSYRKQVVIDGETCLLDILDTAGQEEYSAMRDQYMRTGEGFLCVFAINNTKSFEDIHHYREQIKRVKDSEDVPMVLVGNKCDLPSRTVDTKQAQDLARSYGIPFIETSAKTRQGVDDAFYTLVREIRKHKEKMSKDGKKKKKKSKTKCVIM
In short: as §1

T1 sequence (P01116 1-188 isoform P01116-2 G12C): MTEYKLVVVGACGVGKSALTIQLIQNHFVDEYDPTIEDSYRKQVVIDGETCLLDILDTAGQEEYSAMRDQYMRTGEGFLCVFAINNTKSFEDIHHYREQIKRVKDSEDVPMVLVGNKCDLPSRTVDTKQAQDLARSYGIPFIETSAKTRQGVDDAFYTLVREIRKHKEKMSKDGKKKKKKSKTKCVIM

| Structure (SMILES) | IC50 [1] | IC50 [2] |
| --- | --- | --- |
| CN1CCC[C@H]1COc1nc(N2C[C@H]3CC[C@@H](C2)N3)c2ccc(-c3c[nH]c4cccc(Cl)c34)c(F)c2n1 [P-0654, 4-((1R,5S)-3,8-diazabicyclo[3.2.1]octan-3-yl)-7-(4-chloro-1H-indol-3-yl)-8-fluoro-2-(((S)-1-methylpyrrolidin-2-yl)methoxy)quinazoline] | 10 to 100 µM | 0.0001 to 10 µM |
| Oc1cc(-c2ccc3c(N4CC5CCC(C4)N5)nc(OCC4CCCC4O)nc3c2F)c2ccccc2c1 [P-0688, 4-(4-((1R,5S)-3,8-diazabicyclo[3.2.1]octan-3-yl)-8-fluoro-2-((2-hydroxycyclopentyl)methoxy)quinazo-lin-7-yl)naphthalen-2-ol] | 10 to 100 µM | 0.0001 to 10 µM |
| Cc1cccc2[nH]cc(-c3c(F)cc4c(N5C[C@H]6CC[C@@H](C5)N6)nc(OCC56CCCN5CCC6)nc4c3F)c12 [P-0790, 4-((1R,5S)-3,8-diazabicyclo[3.2.1]octan-3-yl)-6,8-difluoro-7-(4-methyl-1H-indol-3-yl)-2-((tetrahydro-1H-pyrrolizin-7a(5H)-yl)methoxy)quinazoline] | 0.0001 to 10 µM | 0.0001 to 10 µM |
| O=C(OCc1ccccc1)N1CCC[C@H]1COc1nc(N2C[C@H]3CC[C@@H](C2)N3)c2ccc(-c3cc(O)cc4ccccc34)c(F)c2n1 [P-0677, benzyl (S)-2-(((4-((1R,5S)-3,8-diazabicyclo[3.2.1]octan-3-yl)-8-fluoro-7-(3-hydroxynaphthalen-1-yl)quinazolin-2-yl)oxy)methyl)pyrrolidine-1-carboxylate] | 10 to 100 µM | 0.0001 to 10 µM |
| CN(C)C1CCN(c2nc(N3C[C@H]4CC[C@@H](C3)N4)c3ccc(-c4cc(O)cc5ccccc45)c(F)c3n2)C1 (stereo partly drawn) [P-0704, 4-(4-((1R,5S)-3,8-diazabicyclo[3.2.1]octan-3-yl)-2-(3-(dimethylamino)pyrrolidin-1-yl)-8-fluoroquinazolin-7-yl)naphthalen-2-ol] | 10 to 100 µM | 0.0001 to 10 µM |
| CC(=O)NCCCN1CCCC1COc1nc(N2C[C@H]3CC[C@@H](C2)N3)c2ccc(-c3cc(O)cc4ccccc34)c(F)c2n1 (mixture of isomers) [P-0674, N-(3-((RS)-2-(((4-((1R,5S)-3,8-diazabicyclo[3.2.1]octan-3-yl)-8-fluoro-7-(3-hydroxynaphthalen-1-yl)quinazolin-2-yl)oxy)methyl)pyrrolidin-1-yl)propyl)acetamide] | 0.0001 to 10 µM | 0.0001 to 10 µM |
| CN(C)C(=O)CNc1nc(N2C[C@H]3CC[C@@H](C2)N3)c2ccc(-c3cc(O)cc4ccccc34)cc2n1 [P-0059, 2-((4-((1R,5S)-3,8-diazabicyclo[3.2.1]octan-3-yl)-7-(3-hydroxynaphthalen-1-yl)quinazolin-2-yl)amino)-N,N-dimethylacetamide] | 10 to 100 µM | 10 to 100 µM |
| OCC1(CO)CN(c2nc(N3C[C@H]4CC[C@@H](C3)N4)c3ccc(-c4cc(O)cc5ccccc45)c(F)c3n2)C1 [P-0686, (1-(4-((1R,5S)-3,8-diazabicyclo[3.2.1]octan-3-yl)-8-fluoro-7-(3-hydroxynaphthalen-1-yl)quinazolin-2-yl)azetidine-3,3-diyl)dimethanol] | 100 to 1000 µM | 0.0001 to 10 µM |
| CC(C)(COc1nc(N2C[C@H]3CC[C@@H](C2)N3)c2ccc(-c3cc(O)cc4ccccc34)c(F)c2n1)NS(C)(=O)=O [P-0718, N-(1-((4-((1R,5S)-3,8-diazabicyclo[3.2.1]octan-3-yl)-8-fluoro-7-(3-hydroxynaphthalen-1-yl)quinazolin-2-yl)oxy)-2-methylpropan-2-yl)methanesulfonamide] | 10 to 100 µM | 0.0001 to 10 µM |
| FC(F)(F)c1cccc2[nH]cc(-c3ccc4c(N5C[C@H]6CC[C@@H](C5)N6)nc(OCC56CCCN5CCC6)nc4c3)c12 [P-0711, 4-((1R,5S)-3,8-diazabicyclo[3.2.1]octan-3-yl)-2-((tetrahydro-1H-pyrrolizin-7a(5H)-yl)methoxy)-7-(4-(trifluoromethyl)-1H-indol-3-yl)quinazoline] | 0.0001 to 10 µM | 0.0001 to 10 µM |
| O=C1CCC2(CN(c3nc(N4C[C@H]5CC[C@@H](C4)N5)c4ccc(-c5cc(O)cc6ccccc56)c(F)c4n3)C2)N1 [P-0680, 2-(4-((1R,5S)-3,8-diazabicyclo[3.2.1]octan-3-yl)-8-fluoro-7-(3-hydroxynaphthalen-1-yl)quinazolin-2-yl)-2,5-diazaspiro[3.4]octan-6-one] | 100 to 1000 µM | 0.0001 to 10 µM |
| CCN1CCC[C@H]1COc1nc(N2C[C@H]3CC[C@@H](C2)N3)c2ccc(-c3cc(O)cc4ccccc34)c(F)c2n1 [P-0667, 4-(4-((1R,5S)-3,8-diazabicyclo[3.2.1]octan-3-yl)-2-(((S)-1-ethylpyrrolidin-2-yl)methoxy)-8-fluoroquinazolin-7-yl)naphthalen-2-ol] | 0.0001 to 10 µM | 0.0001 to 10 µM |
| CN(C)C1CN(c2nc(N3C[C@H]4CC[C@@H](C3)N4)c3ccc(-c4cc(O)cc5ccccc45)c(F)c3n2)C1 [P-0794, 4-(4-((1R,5S)-3,8-diazabicyclo[3.2.1]octan-3-yl)-2-(3-(dimethylamino)azetidin-1-yl)-8-fluoroquinazolin-7-yl)naphthalen-2-ol] | 10 to 100 µM | 0.0001 to 10 µM |
| OCCOc1nc(N2C[C@H]3CC[C@@H](C2)N3)c2ccc(-c3cc(O)cc4ccccc34)c(F)c2n1 [P-0784, 4-(4-((1R,5S)-3,8-diazabicyclo[3.2.1]octan-3-yl)-8-fluoro-2-(2-hydroxyethoxy)quinazolin-7-yl)naphthalen-2-ol] | 10 to 100 µM | 0.0001 to 10 µM |
| Oc1cc(-c2ccc3c(N4C[C@H]5CC[C@@H](C4)N5)nc(OCC4(O)CCCC4)nc3c2F)c2ccccc2c1 [P-0721, 4-(4-((1R,5S)-3,8-diazabicyclo[3.2.1]octan-3-yl)-8-fluoro-2-((1-hydroxycyclopentyl)methoxy)quinazo-lin-7-yl)naphthalen-2-ol] | 10 to 100 µM | 0.0001 to 10 µM |
| Oc1cc(-c2ccc3c(N4C[C@H]5CC[C@@H](C4)N5)nc(OCCN4CCC4)nc3c2F)c2ccccc2c1 [P-0713, 4-(2-(2-(azetidin-1-yl)ethoxy)-4-((1R,5S)-3,8-diazabicyclo[3.2.1]octan-3-yl)-8-fluoroquinazolin-7-yl)naphthalen-2-ol] | 10 to 100 µM | 0.0001 to 10 µM |
| CC1(COc2nc(N3C[C@H]4CC[C@@H](C3)N4)c3ccc(-c4cc(O)cc5ccccc45)c(F)c3n2)COC1 [P-0785, 4-(4-((1R,5S)-3,8-diazabicyclo[3.2.1]octan-3-yl)-8-fluoro-2-((3-methyloxetan-3-yl)methoxy)quinazolin-7-yl)naphthalen-2-ol] | 100 to 1000 µM | 100 to 1000 µM |
| CCc1cc2c(N3C[C@H]4CC[C@@H](C3)N4)nc(OC[C@@H]3CCCN3C)nc2c(F)c1-c1cc(O)cc2ccccc12 [P-0013, 4-(4-((1R,5S)-3,8-diazabicyclo[3.2.1]octan-3-yl)-6-ethyl-8-fluoro-2-(((S)-1-methylpyrrolidin-2-yl)methoxy)quinazolin-7-yl)naphthalen-2-ol] | 0.0001 to 10 µM | 0.0001 to 10 µM |
| Oc1cc(-c2ccc3c(N4C[C@H]5CC[C@@H](C4)N5)nc(OCC4CCCCC4)nc3c2F)c2ccccc2c1 [P-0779, 4-(4-((1R,5S)-3,8-diazabicyclo[3.2.1]octan-3-yl)-2-(cyclohexylmethoxy)-8-fluoroquinazolin-7-yl)naphthalen-2-ol] | 10 to 100 µM | 0.0001 to 10 µM |

Reference: patent US20230081426A1, “COMPOUNDS AND METHODS FOR KRAS MODULATION AND INDICATIONS THEREFOR” (Plexxikon Inc., priority 2020, published 2023)
